{"source": "patent US20240150755A1", "about": "“MODULATING REGULATORY T CELL FUNCTION IN AUTOIMMUNE DISEASE AND CANCER” (Salk Institute for Biological Studies, priority 2021, published 2024)", "key": {"Rag1^−/− mice": {"test_system": "Rag1^−/− mice", "test": "Adoptive T cell transfer-induced colitis model", "format": "in vivo, mouse", "excerpt": "Treg cells were transduced by retrovirus expressing sgRNA targeting gene of interest, and cultured in X-VIVO® complete media and IL-2 (500 U/ml). Four days after transduction, the NGFR^+ transduced Treg cells were FACS sorted before transferred into recipient mice. To induce colitis, 2 million effector T cells (CD45.1^+CD4^+CD25^−CD45RB^hi) and 1 million sgRNA transduced Treg cells (CD45.2^+ CD4^+ Thy1.1^+ NGFR^+) were mixed together and transferred into Rag1^−/− recipient mice. The body weight of recipient mice was monitored weekly for signs of wasting symptoms. Mice were harvested 7 weeks after T cell transfer. Spleens were used for profiling immune cell populations by FACS. Colons were collected for histopathological analysis.\nHistopathological analysis was performed in a blinded manner and scored using the following criteria: eight parameters were used, including (i) the degree of inflammatory infiltrate in the LP (0-3); (ii) Goblet cell loss (0-2); (iii) reactive epithelial hyperplasia/atypia with nuclear changes (0-3); (iv) the number of IELs in the epithelial crypts (0-3); (v) abnormal crypt architecture (distortion, branching, atrophy, crypt loss) (0-3); (vi) number of crypt abscesses (0-2); (vii) mucosal erosion to frank ulcerations (0-2) and (viii) submucosal spread to transmural involvement (0-2). The severity of lesion was scored independently in 3 regions (proximal, middle and distal colon) over a maximal score of 20. The overall colitis score was based as the average of each regional score (maximal score of 20)."}, "H3K27ac": {"test_system": "H3K27ac", "test": "H3K27ac ChIP-seq in Treg cells", "format": "cell-based, mouse", "details": "sgRNA transduced Treg cells", "method": "Treg cells were collected and cross-linked first in 3 mM disuccinimidyl glutarate (DSG) in 1×PBS for thirty minutes then in 1% formaldehyde for another ten minutes, both at RT, for chromatin binding protein ChIP or in 1% formaldehyde only for histone modification ChIP. After quenching the excess cross-linker with a final concentration of 125 mM glycine, the cells were washed in 1× PBS, pelleted, flash-frozen in liquid nitrogen, and stored at −80° C. Cell pellets were thawed on ice and incubated in lysis solution (50 mM HEPES-KOH pH 8, 140 mM NaCl, 1 mM EDTA, 10% glycerol, 0.5% NP40, 0.25% Triton X-100) for ten minutes. The isolated nuclei were washed with wash solution (10 mM Tris-HCl pH 8, 1 mM EDTA, 0.5 mM EGTA, 200 mM NaCl) and shearing buffer (0.1% SDS, 1 mM EDTA, 10 mM Tris-HCl pH 8) then sheared in a Covaris® E229 sonicator for ten minutes to generate DNA fragments between ˜200-1000 base pairs (bp). After clarification of insoluble material by centrifugation, the chromatin was immunoprecipitated overnight at 4° C. with antibodies against Foxp3, Smarca4, Brd9, Phf10 or H3K27ac. […]\nSingle-end 50 bp or paired-end 42 bp reads were aligned to mouse genome mm10 using STAR alignment tool (V2.5) (Dobin et al., Bioinformatics 29:15-21, 2013). […]"}}}
{"substance": "sgBrd9: sgRNA targeting Brd9, ATTAACCGGTTTCTCCCGGG (SEQ ID NO: 12) (expressed or natural sequence)", "values": [{"measurement": "protection of recipient mice from body weight loss", "setting": "Rag1^−/− mice; co-transfer of Teff and sgRNA transduced Treg cells into Rag1^−/− mice", "value": "failed to protect recipients from losing weight"}, {"measurement": "Foxp3^+ cell frequencies within the CD45.2^+CD4^+ transferred Treg population", "setting": "Rag1^−/− mice; end point of colitis model", "value": "reduced Foxp3^+ cell frequencies"}, {"measurement": "colitis pathology", "setting": "Rag1^−/− mice; seven weeks after transfer, vs control Treg cells", "value": "significant colitis pathology"}, {"measurement": "H3K27ac at Brd9-dependent Foxp3 sites", "setting": "H3K27ac", "value": "reduction in H3K27ac"}]}
